Source: US7439343B2, “Aminoglycoside-polyamine displacers and methods of use in displacement chromatography” (Rensselaer Polytechnic Institute, priority 2005, dated 2008)

Tests used:
[1] = target: horse cytochrome-C on HP Sepharose SP; test: Batch displacement assay, cytochrome-C on HP Sepharose SP; type: binding; conditions: input displacer concentration displacing 50% of bound protein; 50 mM phosphate, pH 6.0
Text: (§1) A modified batch displacement assay was used to investigate displacer efficacy of the carbohydrate derivatives over a wide range of concentrations. The carbohydrate derivatives from hereon will be referred to as the displacer candidates unless otherwise specified. Different input concentrations of the displacer candidates were employed to determine the DC50 value, which is the input displacer concentration required to displace fifty percent of the initially bound protein. The lower the DC50 value the more efficacious is the displacer candidate.
(§2) Table 1 is of displacer candidates and their respective DC50 values of horse cytochrome-C on HP Sepharose SP and Source 15S cation exchange resins in accordance with the present invention. Column 201 is the displacer candidate evaluated. Column 202 is DC50 values of horse cytochrome-C on HP Sepharose SP. Column 203 is the DC50 values of horse cytochrome-C on Source 15S cation exchange resin. The above approach was employed to determine the DC50 values of the displacer candidates for the displacement of horse cytochrome-C on HP Sepharose SP and Source 15S cation exchange resins at pH 6.0.
(§3) The bulk stationary phase (HP Sepharose SP or Source 15S) was first washed once with de-ionized water and then three times with the buffer, (50 mM phosphate, pH 6.0) and allowed to equilibrate for 2 hours. After gravity-settling of the stationary phase, the supernatant was removed and 3.0 mL of the remaining stationary phase slurry was equilibrated with 36 ml containing 3 mg/ml of the protein (horse heart cytochrome-C or chicken egg lysozyme) in 50 mM phosphate buffer, pH 6.0, at 20° C.
(§4) The protein was equilibrated with the resin for five hours in order to attain complete equilibration during which, the stationary phase was allowed to gravity-settle. Upon settling, the supernatant was removed and the protein content in the supernatant was determined using absorbance detection at 280 or 405 nm using a plate reader. The mass of the protein adsorbed on the stationary phase was determined by mass balance.
(§5) For the screening experiments, 300 μL of different initial concentrations (ranging from 0.3 to 5 mM) of a displacer solution was added to 25 μL aliquots of the stationary phase slurry with bound protein. (note: a different displacer candidate and concentration were employed for each vial to enable parallel screening). The system was equilibrated for 5 h. After equilibrium was achieved, the supernatant was removed and the protein content was determined by absorbance detection at 280 or 405 nm using a plate reader.
(§6) The percent protein displaced, was calculated for each aliquot based on the protein mass balance and the data was plotted as a function of the initial displacer concentration. The resulting plots were then employed to determine the initial displacer concentration required to displace fifty percent of the adsorbed protein (i.e. the DC50).

[2] = target: horse cytochrome-C on Source 15S cation exchange resin; test: Batch displacement assay, cytochrome-C on Source 15S; type: binding; conditions: input displacer concentration displacing 50% of bound protein; 50 mM phosphate, pH 6.0
Text: as §1
as §2, with “Column” for “Table 1 is of displacer candidates and their respective DC50 values of horse cytochrome-C on HP Sepharose SP and Source 15S cation exchange resins in accordance with the present invention. Column”
The influence of the stationary phase on displacer affinity was investigated using a second strong cation exchange resin, Source 15S.
as §3, §4, §5, §6

[3] = system: chicken-egg lysozyme adsorbed on HP Sepharose SP; test: Batch displacement assay, lysozyme on HP Sepharose SP; type: binding; conditions: displacer concentration 2.5 mM
Description: FIG. 2 depicts a graph comparing the % lysozyme and % cytochrome-C displaced on HP Sepharose SP in accordance with the present invention. The Y axis is % protein displaced. The X axi is the displacer candidate evaluated. The displacer candidate concentration is 2.5 mM in an embodiment of the present invention. In order to evaluate the displacer candidates with another protein, experiments were carried out with chicken-egg lysozyme adsorbed on HP Sepharose SP. Referring to FIG. 2, a comparison of the percent protein displaced for both lysozyme and cytochrome-C at displacer concentrations of 2.5 mM is shown. The data is arranged in increasing order of percent lysozyme displaced. […] Upon settling, the supernatant was removed and the protein content in the supernatant was determined using absorbance detection at 280 or 405 nm using a plate reader. The mass of the protein adsorbed on the stationary phase was determined by mass balance. […] After equilibrium was achieved, the supernatant was removed and the protein content was determined by absorbance detection at 280 or 405 nm using a plate reader. The percent protein displaced, was calculated for each aliquot based on the protein mass balance and the data was plotted as a function of the initial displacer concentration. […]

DNA = test: Ethidium bromide displacement assay (DNA binding); parameters: species or system calf; conditions: 96-well format
Text: A method for condensing DNA comprising combining the DNA with at least one of the aforementioned derivatives of a carbohydrate compound wherein the DNA is bound to the carbohydrate compound is presented in accordance with the present invention. FIG. 3 depicts a graph of DNA binding efficacy of the displacer candidates in an embodiment of the present invention. The Y axis is % fluorescence decreased and the X axis is the carbohydrate derivative evaluated.
Referring to FIG. 3, an ethidium bromide displacement assay was employed to evaluate the DNA-binding affinity of carbohydrate derivatives in a 96-well format. Using this screen, the percent fluorescence decreased was used as a parameter to rank the DNA-binding efficacy of the various compounds.

| Compound | DC50 [1] | DC50 [2] | DC50-Cytochrome C on Source 15S [2] | % fluorescence decreased (DNA) | DC50-Cytochrome C on HP Sepharose SP [1] | percent protein displaced (lysozyme) [3] |
| --- | --- | --- | --- | --- | --- | --- |
| NCCNC(=O)NCC1OC(OC2C(NC(=O)NCCN)CC(NC(=O)NCCN)C(O)C2O)C(NC(=O)NCCN)C(O)C1O (stereo not drawn) [17a] | 2.1 mM | 2.3 ± 0.04 mM | – | – | – | – |
| NCCCNCCCCNCCCNC(=O)NCC1OC(OC2C(NC(=O)NCCCNCCCCNCCCN)CC(NC(=O)NCCCNCCCCNCCCN)C(O)C2O)C(NC(=O)NCCCNCCCCNCCCN)C(O)C1O (stereo not drawn) [17b, neamine tetraspermine] | 0.7 mM | 0.6 mM | – | – | sub-millimolar | 52.8% |
| COC1OC(CO)C(OC2OC(CNC(=O)NCCNCCN)C(O)C(O)C2NC(=O)NCCNCCN)C1O (stereo not drawn) [20a] | 9.4 ± 2.65 mM | 4.8 ± 0.03 mM | – | – | – | – |
| COC1OC(CO)C(OC2OC(CNC(=O)NCCCNCCCCNCCCN)C(O)C(O)C2NC(=O)NCCCNCCCCNCCCN)C1O (stereo not drawn) [20b] | 1.1 mM | 0.8 ± 0.04 mM | sub-millimolar | – | – | – |
| NCCCNCCCCNCCCNC(=O)NCC1OC(OC2C(NC(=O)NCCCNCCCCNCCCN)CC(NC(=O)NCCCNCCCCNCCCN)C(OC3OC(CO)C(O)C(NC(=O)NCCCNCCCCNCCCN)C3O)C2O)C(O)C(O)C1O (stereo not drawn) [23c, kanamycin A tetraspermine] | 1 mM | 0.9 mM | – | – | sub-millimolar | – |
| NC[C@H]1O[C@H](O[C@H]2[C@H](O)[C@@H](O[C@H]3O[C@H](CO)[C@@H](O)[C@H](N)[C@H]3O)[C@H](N)C[C@@H]2N)[C@H](N)[C@@H](O)[C@@H]1O [Bekanamycin, bekanamycin, reference compound] | 6.2 ± 0.37 mM | 3.1 ± 2.29 mM | – | relatively low efficacies | – | – |
| NCCNCCN [Diethylenetriamine, diethylenetriamine, reference compound] | 10.8 ± 0.19 mM | 14.4 ± 3.67 mM | – | – | – | – |
| NCCN [Ethylenediamine, ethylenediamine, reference compound] | 20.2 ± 2.67 mM | 17.6 ± 2.15 mM | – | – | – | – |
| NC[C@H]1O[C@H](O[C@H]2[C@H](O)[C@@H](O)[C@H](N)C[C@@H]2N)[C@H](N)[C@@H](O)[C@@H]1O [Neamine, neamine, reference compound] | 5.6 mM | 4.9 ± 1.67 mM | – | – | – | – |
| NCCCCNCCCN [Spermidine, spermidine, reference compound] | 7.7 ± 1.44 mM | 5.8 ± 0.44 mM | – | relatively low efficacies | – | – |
| NCCCNCCCCNCCCNC(=O)OCC1OC(n2cnc3c(N)ncnc32)CC1O (stereo not drawn) [compound 7] | 11.7 ± 0.1 mM | 6.2 ± 0.46 mM | – | – | – | – |
| NCCCNCCCCNCCCNC(=O)OC1CC(n2cnc3c(N)ncnc32)OC1CO (stereo not drawn) [compound 9] | 12.3 ± 0.25 mM | 12.9 ± 1.46 mM | – | – | – | – |

More lines, in order of falling DC50 [1], values ahead:

| DC50 [1] | DC50 [2] | DC50-Cytochrome C on Source 15S [2] | % fluorescence decreased (DNA) | Compound | DC50-Cytochrome C on HP Sepharose SP [1] | percent protein displaced (lysozyme) [3] |
| --- | --- | --- | --- | --- | --- | --- |
| 4.8 mM | 4.3 ± 0.64 mM | – | relatively low efficacies | NCCCNCCCCNCCCN [Spermine, spermine, reference compound] | – | – |
| 3.6 mM | 0.8 mM | sub-millimolar | – | COC1OC(COC(=O)NCCCNCCCCNCCCN)C(O)C(O)C1NC(=O)NCCCNCCCCNCCCN (stereo not drawn) [4b] | – | – |
| 2.8 mM | 0.9 mM | sub-millimolar | – | NCCCNCCCCNCCCNC(=O)NC1C(O)OC(COC(=O)NCCCNCCCCNCCCN)C(O)C1O (stereo not drawn) [4a] | – | – |
| 2.8 ± 0.2 mM | 0.8 mM | sub-millimolar | – | NCCCNCCCCNCCCNC(=O)NC1C(OCc2ccccc2)OC(COC(=O)NCCCNCCCCNCCCN)C(O)C1O (stereo not drawn) [4d] | – | – |
| 2.8 mM | 1.7 ± 0.02 mM | – | relatively low efficacies | NCC1OC(OC2C(CO)OC(OC3C(O)C(N)CC(N)C3OC3OC(CN)C(O)C(O)C3N)C2O)C(N)C(O)C1O (stereo not drawn) [Neomycin, neomycin, reference compound] | – | – |
| 2.3 mM | 1.1 ± 0.14 mM | – | – | NCCCNCCCCNCCCNC(=O)Nc1ncnc2c1ncn2C1CC(OC(=O)NCCCNCCCCNCCCN)C(COC(=O)NCCCNCCCCNCCCN)O1 (stereo not drawn) [compound 11] | – | – |
| 2 ± 0.15 mM | 1.7 ± 0.02 mM | – | – | NCCNC(=O)NCC1OC(OC2C(NC(=O)NCCN)CC(NC(=O)NCCN)C(OC3OC(CO)C(O)C(NC(=O)NCCN)C3O)C2O)C(O)C(O)C1O (stereo not drawn) [23a] | – | – |
| 1.9 ± 0.01 mM | 1.9 ± 0.06 mM | – | – | NCCNC(=O)NCC1OC(OC2C(NC(=O)NCCN)CC(NC(=O)NCCN)C(OC3OC(CO)C(O)C(NC(=O)NCCN)C3O)C2O)C(N)C(O)C1O (stereo not drawn) [compound 24] | – | – |
| 1.6 mM | 1.3 ± 0.09 mM | – | – | NCCNC(=O)NCC1OC(OC2C(CO)OC(OC3C(O)C(NC(=O)NCCN)CC(NC(=O)NCCN)C3OC3OC(CNC(=O)NCCN)C(O)C(O)C3NC(=O)NCCN)C2O)C(NC(=O)NCCN)C(O)C1O (stereo not drawn) [14a] | highest affinity among the neomycin derivatives | – |
| 1.3 mM | 0.8 mM | sub-millimolar | – | NCCCNCCCCNCCCNC(=O)NC1C(OCc2ccccc2)OC(COC(=O)NCCCNCCCCNCCCN)C(O)C1O (stereo not drawn) [4c] | – | – |
